Source: ChEMBL document CHEMBL1159255, “Cardenolides from Nierembergia aristata” (1995)
Converted amounts (≈) assume the structure as drawn.

Columns and labels:
SK-MEL-2 = test: Cytotoxicity against human SK-MEL-2 cells; assay type: functional; conditions: read-out: ED50 (the source's name)
KB = test: Cytotoxicity against human KB cells; assay type: functional; conditions: read-out: ED50 (the source's name)
ZR-75-1 = test: Cytotoxicity against human ZR-75-1 cells; assay type: functional; conditions: read-out: ED50 (the source's name)
A-431 = test: Cytotoxicity against human A431 cells; assay type: functional; conditions: read-out: ED50 (the source's name)
Lu1 = test: Cytotoxicity against human Lu1 cells; assay type: functional; conditions: read-out: ED50 (the source's name)
LNCaP = test: Cytotoxicity against human LNCAP cells; assay type: functional; conditions: read-out: ED50 (the source's name)
[1] = Cytotoxicity against human KBVIN cells in presence of vinblastine; assay type: functional; conditions: read-out: ED50 (the source's name)
[2] = Cytotoxicity against human KBVIN cells in absence of vinblastine; assay type: functional; conditions: read-out: ED50 (the source's name)
[3] = Cytotoxicity against human BC1 cells; assay type: functional; conditions: read-out: ED50 (the source's name)
HT = test: Cytotoxicity against human HT cells; assay type: functional; conditions: read-out: ED50 (the source's name)
Col2 = test: Cytotoxicity against human Col2 cells; assay type: functional; conditions: read-out: ED50 (the source's name)
[4] = Cytotoxicity against human U373 cells; assay type: functional, U-373MG ATCC; conditions: U373 MG, read-out: ED50 (the source's name)

| SMILES | EC50 (SK-MEL-2) | EC50 (KB) | EC50 (ZR-75-1) | EC50 (A-431) | EC50 (Lu1) | EC50 (LNCaP) | EC50 [1] | EC50 [2] | EC50 [3] | EC50 (HT) | EC50 (Col2) | EC50 [4] |
| --- | --- | --- | --- | --- | --- | --- | --- | --- | --- | --- | --- | --- |
| C[C@H]1O[C@@H](O[C@H]2CC[C@]3(C=O)[C@H]4[C@H](O)C[C@]5(C)[C@H](C6=CC(=O)OC6)CC[C@]5(O)[C@@H]4C=C[C@]3(O)C2)C[C@H](O)[C@H]1O | 4.1 µg/mL (≈ 7.47 µM) | 0.3 µg/mL (≈ 0.547 µM) | 0.4 µg/mL (≈ 0.729 µM) | 0.5 µg/mL (≈ 0.911 µM) | 0.09 µg/mL (≈ 0.164 µM) | 0.3 µg/mL (≈ 0.547 µM) | 0.6 µg/mL | 1.6 µg/mL (≈ 2.92 µM) | 0.3 µg/mL (≈ 0.547 µM) | 2.3 µg/mL (≈ 4.19 µM) | 0.5 µg/mL (≈ 0.911 µM) | 0.4 µg/mL (≈ 0.729 µM) |
| C[C@H]1O[C@@H](O[C@H]2CC[C@]3(C=O)[C@H]4CC[C@]5(C)[C@@H](C6=CC(=O)OC6)CC[C@]5(O)[C@@H]4C=C[C@]3(O)C2)C[C@H](O)[C@H]1O | 0.05 µg/mL (≈ 0.0939 µM) | 0.04 µg/mL (≈ 0.0751 µM) | 0.08 µg/mL (≈ 0.15 µM) | 0.09 µg/mL (≈ 0.169 µM) | 0.03 µg/mL (≈ 0.0563 µM) | 0.1 µg/mL (≈ 0.188 µM) | 0.05 µg/mL | 0.06 µg/mL (≈ 0.113 µM) | 0.04 µg/mL (≈ 0.0751 µM) | 0.05 µg/mL (≈ 0.0939 µM) | 0.07 µg/mL (≈ 0.131 µM) | 0.09 µg/mL (≈ 0.169 µM) |
| CO[C@@H]1C[C@H](O[C@H]2CC[C@]3(C=O)[C@H]4CC[C@]5(C)[C@@H](C6=CC(=O)OC6)CC[C@]5(O)[C@@H]4C=C[C@]3(O)C2)O[C@H](C)[C@H]1O | 0.8 µg/mL (≈ 1.46 µM) | 0.3 µg/mL (≈ 0.549 µM) | 0.2 µg/mL (≈ 0.366 µM) | 0.7 µg/mL (≈ 1.28 µM) | 0.1 µg/mL (≈ 0.183 µM) | 0.5 µg/mL (≈ 0.915 µM) | 0.3 µg/mL | 0.5 µg/mL (≈ 0.915 µM) | 0.3 µg/mL (≈ 0.549 µM) | 0.4 µg/mL (≈ 0.732 µM) | 0.9 µg/mL (≈ 1.65 µM) | 0.8 µg/mL (≈ 1.46 µM) |
